Our source for the EC50 values is patent US20110172147A1, “NEUROPEPTIDE-2 RECEPTOR (Y-2R) AGONISTS” (priority 2009, published 2011).

Type in all cases: cell-based
One test deals with Y4R (Homo sapiens, UniProt P50391). In words: CaFlux Assay (FLIPR), Y4R.
The target of the next test is T1, Y5R (Homo sapiens, UniProt Q15761).
T1 sequence (Q15761 1-445): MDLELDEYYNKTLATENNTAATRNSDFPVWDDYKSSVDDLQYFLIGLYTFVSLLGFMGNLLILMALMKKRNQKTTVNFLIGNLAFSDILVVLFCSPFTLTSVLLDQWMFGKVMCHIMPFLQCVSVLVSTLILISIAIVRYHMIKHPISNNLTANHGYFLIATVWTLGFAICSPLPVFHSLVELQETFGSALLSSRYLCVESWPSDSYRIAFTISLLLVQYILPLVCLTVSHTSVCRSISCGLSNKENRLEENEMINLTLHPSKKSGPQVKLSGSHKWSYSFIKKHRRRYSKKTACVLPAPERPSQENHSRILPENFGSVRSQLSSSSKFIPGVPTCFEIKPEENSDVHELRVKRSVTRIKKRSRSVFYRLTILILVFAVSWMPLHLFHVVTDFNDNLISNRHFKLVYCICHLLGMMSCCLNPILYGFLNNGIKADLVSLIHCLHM
The test can be described thus: CaFlux Assay (FLIPR), Y5R.

The next test addresses T2, Y1R (Homo sapiens, UniProt P25929).
T2 sequence (P25929 1-384): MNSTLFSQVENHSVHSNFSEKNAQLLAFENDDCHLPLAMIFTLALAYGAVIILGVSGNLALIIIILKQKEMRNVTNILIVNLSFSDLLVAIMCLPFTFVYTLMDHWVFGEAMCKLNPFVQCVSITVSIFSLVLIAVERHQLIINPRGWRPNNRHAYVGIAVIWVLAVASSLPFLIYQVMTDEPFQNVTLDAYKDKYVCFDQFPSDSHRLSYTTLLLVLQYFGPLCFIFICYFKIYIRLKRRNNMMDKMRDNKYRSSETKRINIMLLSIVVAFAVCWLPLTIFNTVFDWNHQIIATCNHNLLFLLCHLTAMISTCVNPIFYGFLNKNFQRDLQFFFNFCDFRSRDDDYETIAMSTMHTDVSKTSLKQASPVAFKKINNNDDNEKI
In words: CaFlux Assay (FLIPR), Y1R.

Test [1] deals with T3, hNPY2R (Homo sapiens, UniProt P49146).
T3 sequence (P49146 1-381): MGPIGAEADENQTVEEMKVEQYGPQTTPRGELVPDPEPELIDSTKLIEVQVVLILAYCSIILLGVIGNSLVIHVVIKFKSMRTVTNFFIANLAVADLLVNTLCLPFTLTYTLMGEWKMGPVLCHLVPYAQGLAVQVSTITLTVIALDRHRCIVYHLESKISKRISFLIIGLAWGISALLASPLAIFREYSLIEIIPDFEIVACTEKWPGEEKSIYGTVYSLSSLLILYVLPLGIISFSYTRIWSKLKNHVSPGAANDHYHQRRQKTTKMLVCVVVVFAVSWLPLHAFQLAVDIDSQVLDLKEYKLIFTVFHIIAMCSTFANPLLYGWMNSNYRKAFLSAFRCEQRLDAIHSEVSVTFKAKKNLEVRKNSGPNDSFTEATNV
The test can be described thus: cAMP Agonist Assay, HEK293/hNPY2R. On the set-up: expressed in transfected cells; host or cells: HEK293/hNPY2R (G418 selection). Put shortly: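 HEK293/hNPY2R cells (10,000/well, overnight) stimulated 30 min at room temperature with compound plus 5 μM forskolin and 0.5 mM IBMX (1.1% DMSO final). Lysate cAMP measured by competitive chemiluminescent ELISA (AP conjugate, CSPD substrate); quadruplicates.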

The target in test [2] is T3, hNPY2R. In words: CaFlux Assay (FLIPR), Y2R. Further details: expressed in transfected cells; host or cells: HEK-293 stably transfected with G protein chimera Gαqi9. In a few lines: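 Calcium flux read by FLIPR in HEK-293 clones co-expressing chimeric Gαqi9 and receptor; compounds in HBSS/20 mM HEPES/0.05% BSA. Baseline-subtracted peak fluorescence, monitored 100 s after addition, is reported relative to the positive control's maximal response.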

Chain of Y4R (P50391 whole entry): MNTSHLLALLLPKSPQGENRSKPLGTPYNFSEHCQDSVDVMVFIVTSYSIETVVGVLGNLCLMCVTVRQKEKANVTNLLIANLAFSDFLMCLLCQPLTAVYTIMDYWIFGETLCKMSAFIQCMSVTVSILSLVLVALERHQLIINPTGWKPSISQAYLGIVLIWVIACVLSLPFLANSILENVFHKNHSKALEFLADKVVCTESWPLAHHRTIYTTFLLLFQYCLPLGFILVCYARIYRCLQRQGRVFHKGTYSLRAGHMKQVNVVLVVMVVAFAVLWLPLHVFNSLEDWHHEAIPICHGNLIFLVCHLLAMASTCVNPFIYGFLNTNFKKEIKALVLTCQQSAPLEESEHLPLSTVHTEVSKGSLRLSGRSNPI

`CCCCCCCCCCCCCCCC(=O)NCCCCCC(=O)N[C@H](C(=O)N[C@@H](CCCCNC(=O)CCOCCOCCOCCOCCOCCOCCOCCOCCOCCOCCOCCOCCOCCOCCOCCOC)C(=O)N1CCN(c2ccc3ncn(CC(=O)N[C@@H](CCCNC(N)=O)C(=O)N[C@@H](Cc4c[nH]cn4)C(=O)N[C@@H](Cc4ccc(O)cc4)C(=O)N[C@@H](CC(C)C)C(=O)N[C@@H](CC(N)=O)C(=O)N[C@@H](Cc4c[nH]c5ccccc45)C(=O)N[C@H](C(=O)N[C@H](C(=O)N[C@@H](CCCNC(=N)N)C(=O)N[C@@H](CCC(N)=O)C(=O)N(C)[C@@H](CCCNC(=N)N)C(=O)N[C@@H](Cc4ccc(O)cc4)C(N)=O)[C@@H](C)O)C(C)C)c(=O)c3c2)CC1)[C@@H](C)CC` [Example 32]: the EC50 (commonly the concentration at which the effect is half-maximal) at Y4R was above 6000 nM; at Y5R, 4760 nM; on Y1R, above 6000 nM; on hNPY2R [1], 0.23 nM; on hNPY2R [2], 0.15 nM.
As to `CCCCCCCCCCCCCCCCCCCC(=O)NCCCCCC(=O)N[C@H](C(=O)N[C@@H](CCCCNC(=O)CCOCCOCCOCCOCCOCCOCCOCCOCCOCCOCCOCCOCCOCCOCCOCCOCCOCCOCCOCCOCCOCCOCCOCCOC)C(=O)N1CCN(c2ccc3ncn(CC(=O)N[C@@H](CCCNC(N)=O)C(=O)N[C@@H](Cc4c[nH]cn4)C(=O)N[C@@H](Cc4ccc(O)cc4)C(=O)N[C@@H](CC(C)C)C(=O)N[C@@H](CC(N)=O)C(=O)N[C@@H](Cc4c[nH]c5ccccc45)C(=O)N[C@H](C(=O)N[C@H](C(=O)N[C@@H](CCCNC(=N)N)C(=O)N[C@@H](CCC(N)=O)C(=O)N(C)[C@@H](CCCNC(=N)N)C(=O)N[C@@H](Cc4ccc(O)cc4)C(N)=O)[C@@H](C)O)C(C)C)c(=O)c3c2)CC1)[C@@H](C)CC` [Example 33], the EC50 is above 6000 nM at Y4R; 4290 nM on Y5R; above 6000 nM on Y1R; 0.13 nM at hNPY2R [1]; 0.127 nM on hNPY2R [2].
As for `CCCCCCCCCCCCCCCC(=O)NCCCCCC(=O)N[C@H](C(=O)N[C@@H](CCCCNC(=O)CCOCCOCCOCCOCCOCCOCCOCCOCCOCCOCCOCCOCCOCCOCCOCCOCCOCCOCCOCCOCCOCCOCCOCCOC)C(=O)N1CCN(c2ccc3ncn(CC(=O)N[C@@H](CCCNC(=N)N)C(=O)N[C@@H](Cc4c[nH]cn4)C(=O)N[C@@H](Cc4ccc(O)cc4)C(=O)N[C@@H](CC(C)C)C(=O)N[C@@H](CC(N)=O)C(=O)N[C@@H](Cc4c[nH]c5ccccc45)C(=O)N[C@H](C(=O)N[C@H](C(=O)N[C@@H](CCCNC(=N)N)C(=O)N[C@@H](CCC(N)=O)C(=O)N(C)[C@@H](CCCNC(=N)N)C(=O)N[C@@H](Cc4ccc(O)cc4)C(N)=O)[C@@H](C)O)C(C)C)c(=O)c3c2)CC1)[C@@H](C)CC` [Example 34], the EC50 on Y4R was above 5000 nM; at Y5R it was 988 nM; at Y1R, above 5000 nM; on hNPY2R [1], 0.18 nM; at hNPY2R [2], 0.068 nM.
As to `CCCCCCCCCCCC(=O)NCCCCCC(=O)N[C@H](C(=O)N[C@@H](CCCCNC(=O)CCOCCOCCOCCOCCOCCOCCOCCOCCOCCOCCOCCOCCOCCOCCOCCOCCOCCOCCOCCOCCOCCOCCOCCOC)C(=O)N1CCN(c2ccc3ncn(CC(=O)N[C@@H](CCCNC(N)=O)C(=O)N[C@@H](Cc4c[nH]cn4)C(=O)N[C@@H](Cc4ccc(O)cc4)C(=O)N[C@@H](CC(C)C)C(=O)N[C@@H](CC(N)=O)C(=O)N[C@@H](Cc4c[nH]c5ccccc45)C(=O)N[C@H](C(=O)N[C@H](C(=O)N[C@@H](CCCNC(=N)N)C(=O)N[C@@H](CCC(N)=O)C(=O)N(C)[C@@H](CCCNC(=N)N)C(=O)N[C@@H](Cc4ccc(O)cc4)C(N)=O)[C@@H](C)O)C(C)C)c(=O)c3c2)CC1)[C@@H](C)CC` [Example 36], the EC50 on Y4R is above 6000 nM; on Y5R, above 6000 nM; on Y1R, above 6000 nM; on hNPY2R [1] it was 12.7 nM; at hNPY2R [2] it was 0.388 nM.
As for `CCCCCCCCCCCCCC(=O)NCCCCCC(=O)N[C@H](C(=O)N[C@@H](CCCCNC(=O)CCOCCOCCOCCOCCOCCOCCOCCOCCOCCOCCOCCOCCOCCOCCOCCOCCOCCOCCOCCOCCOCCOCCOCCOC)C(=O)N1CCN(c2ccc3ncn(CC(=O)N[C@@H](CCCNC(N)=O)C(=O)N[C@@H](Cc4c[nH]cn4)C(=O)N[C@@H](Cc4ccc(O)cc4)C(=O)N[C@@H](CC(C)C)C(=O)N[C@@H](CC(N)=O)C(=O)N[C@@H](Cc4c[nH]c5ccccc45)C(=O)N[C@H](C(=O)N[C@H](C(=O)N[C@@H](CCCNC(=N)N)C(=O)N[C@@H](CCC(N)=O)C(=O)N(C)[C@@H](CCCNC(=N)N)C(=O)N[C@@H](Cc4ccc(O)cc4)C(N)=O)[C@@H](C)O)C(C)C)c(=O)c3c2)CC1)[C@@H](C)CC` [Example 37], the EC50 on Y4R is above 6000 nM; at Y5R it was 4260 nM; at Y1R, above 6000 nM; on hNPY2R [1] it was 2.8 nM; at hNPY2R [2] it was 0.158 nM.
For `CCCCCCCCCCCCCCCC(=O)NCCCCCC(=O)NCCOCCOCCOCCOCCOCCOCCOCCOCCOCCOCCOCCOCCOCCOCCOCCOCCOCCOCCOCCOCCOCCOCCOCCOCCC(=O)N[C@H](C(=O)N[C@@H](CCCCN)C(=O)N1CCN(c2ccc3ncn(CC(=O)N[C@@H](CCCNC(=N)N)C(=O)N[C@@H](Cc4c[nH]cn4)C(=O)N[C@@H](Cc4ccc(O)cc4)C(=O)N[C@@H](CC(C)C)C(=O)N[C@@H](CC(N)=O)C(=O)N[C@@H](Cc4c[nH]c5ccccc45)C(=O)N[C@H](C(=O)N[C@H](C(=O)N[C@@H](CCCNC(=N)N)C(=O)N[C@@H](CCC(N)=O)C(=O)N(C)[C@@H](CCCNC(=N)N)C(=O)N[C@@H](Cc4ccc(O)cc4)C(N)=O)[C@@H](C)O)C(C)C)c(=O)c3c2)CC1)[C@@H](C)CC` [Example 38], the EC50 on Y4R is above 6000 nM; at Y5R, 1380 nM; at Y1R, above 6000 nM; at hNPY2R [1], 0.07 nM; on hNPY2R [2], 0.1 nM.
`CCCCCCCCCCCCCCCC(=O)NCCCCCC(=O)NCCOCCOCCOCCOCCOCCOCCOCCOCCOCCOCCOCCOCCOCCOCCOCCOCCOCCOCCOCCOCCOCCOCCOCCOCCC(=O)NCCCC[C@H](NC(=O)[C@@H](NC(C)=O)[C@@H](C)CC)C(=O)N1CCN(c2ccc3ncn(CC(=O)N[C@@H](CCCNC(=N)N)C(=O)N[C@@H](Cc4c[nH]cn4)C(=O)N[C@@H](Cc4ccc(O)cc4)C(=O)N[C@@H](CC(C)C)C(=O)N[C@@H](CC(N)=O)C(=O)N[C@@H](Cc4c[nH]c5ccccc45)C(=O)N[C@H](C(=O)N[C@H](C(=O)N[C@@H](CCCNC(=N)N)C(=O)N[C@@H](CCC(N)=O)C(=O)N(C)[C@@H](CCCNC(=N)N)C(=O)N[C@@H](Cc4ccc(O)cc4)C(N)=O)[C@@H](C)O)C(C)C)c(=O)c3c2)CC1` [Example 39]: the EC50 is above 6000 nM on Y4R; 1950 nM on Y5R; above 6000 nM at Y1R; 0.07 nM on hNPY2R [1]; 0.038 nM on hNPY2R [2].
As for `CCCCCCCCCCCCCCCC(=O)NCCCCCC(=O)NCCCCCC(=O)N[C@H](C(=O)N[C@@H](CCCCNC(=O)CCOCCOCCOCCOCCOCCOCCOCCOCCOCCOCCOCCOC)C(=O)N1CCN(c2ccc3ncn(CC(=O)N[C@@H](CCCNC(=N)N)C(=O)N[C@@H](Cc4c[nH]cn4)C(=O)N[C@@H](Cc4ccc(O)cc4)C(=O)N[C@@H](CC(C)C)C(=O)N[C@@H](CC(N)=O)C(=O)N[C@@H](Cc4c[nH]c5ccccc45)C(=O)N[C@H](C(=O)N[C@H](C(=O)N[C@@H](CCCNC(=N)N)C(=O)N[C@@H](CCC(N)=O)C(=O)N(C)[C@@H](CCCNC(=N)N)C(=O)N[C@@H](Cc4ccc(O)cc4)C(N)=O)[C@@H](C)O)C(C)C)c(=O)c3c2)CC1)[C@@H](C)CC` [Example 40], the EC50 was above 6000 nM at Y4R; 820 nM at Y5R; above 6000 nM on Y1R; 0.11 nM at hNPY2R [1]; 0.058 nM at hNPY2R [2].
